Molecular target: human capsaicin receptor (VR1) (Homo sapiens, UniProt Q8NER1)
Experiment: Capsaicin receptor binding assay ([3H]RTX competition, VR1-transfected HEK293 membranes)

Chain of human capsaicin receptor (VR1) (Q8NER1 whole entry): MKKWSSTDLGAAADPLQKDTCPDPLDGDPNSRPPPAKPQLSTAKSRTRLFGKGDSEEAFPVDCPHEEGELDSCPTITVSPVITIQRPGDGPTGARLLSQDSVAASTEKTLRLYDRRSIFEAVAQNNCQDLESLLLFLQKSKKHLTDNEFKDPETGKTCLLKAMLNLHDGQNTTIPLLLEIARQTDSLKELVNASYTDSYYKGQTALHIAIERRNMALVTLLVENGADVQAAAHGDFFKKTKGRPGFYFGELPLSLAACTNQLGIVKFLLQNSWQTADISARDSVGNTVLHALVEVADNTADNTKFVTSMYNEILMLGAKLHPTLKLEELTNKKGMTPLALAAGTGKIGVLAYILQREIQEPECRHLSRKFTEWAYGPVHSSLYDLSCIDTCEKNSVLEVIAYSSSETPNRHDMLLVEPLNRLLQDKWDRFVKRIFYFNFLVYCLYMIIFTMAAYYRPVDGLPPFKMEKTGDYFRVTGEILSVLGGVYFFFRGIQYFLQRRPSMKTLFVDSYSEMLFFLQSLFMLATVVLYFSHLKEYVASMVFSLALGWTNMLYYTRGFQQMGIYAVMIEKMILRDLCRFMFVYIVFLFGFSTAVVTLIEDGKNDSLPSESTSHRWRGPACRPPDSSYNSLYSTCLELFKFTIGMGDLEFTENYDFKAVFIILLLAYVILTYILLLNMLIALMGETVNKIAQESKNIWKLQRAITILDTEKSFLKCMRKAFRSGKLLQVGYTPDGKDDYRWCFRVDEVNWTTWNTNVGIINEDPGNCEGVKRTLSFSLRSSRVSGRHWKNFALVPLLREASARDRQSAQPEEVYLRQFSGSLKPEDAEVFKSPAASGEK

| SMILES | Ki |
| --- | --- |
| OC1CCCN(Cc2nc(Nc3ccc(C(F)(F)F)cc3)c3ccc(-c4ncccc4C(F)(F)F)cc3n2)C1 (stereo not drawn) [Compound 499, 1-[4-(4-Trifluoromethyl-phenylamino)-7-(3-trifluoromethyl-pyridin-2-yl)-quinazolin-2-ylmethyl]-piperidin-3-ol] | < 1000 nM |
| NC(=O)C1CCN(Cc2nc(Nc3ccc(C(F)(F)F)cc3)c3ccc(-c4ncccc4C(F)(F)F)cc3n2)CC1 [Compound 500, 1-[4-(4-Trifluoromethyl-phenylamino)-7-(3-trifluoromethyl-pyridin-2-yl)-quinazolin-2-ylmethyl]-piperidine-4-carboxylic acid amide] | < 1000 nM |
| CCOC(=O)C1CCCN(Cc2nc(Nc3ccc(C(F)(F)F)cc3)c3ccc(-c4ncccc4C(F)(F)F)cc3n2)C1 (stereo not drawn) [Compound 501, 1-[4-(4-Trifluoromethyl-phenylamino)-7-(3-trifluoromethyl-pyridin-2-yl)-quinazolin-2-ylmethyl]-piperidine-3-carboxylic acid ethyl ester] | < 1000 nM |
| OCC1CCCN(Cc2nc(Nc3ccc(C(F)(F)F)cc3)c3ccc(-c4ncccc4C(F)(F)F)cc3n2)C1 (stereo not drawn) [Compound 502, {1-[4-(4-Trifluoromethyl-phenylamino)-7-(3-trifluoromethyl-pyridin-2-yl)-quinazolin-2-ylmethyl]-piperidin-3-yl}-methanol] | < 1000 nM |
| CCOC(=O)C1CCN(Cc2nc(Nc3ccc(C(F)(F)F)cc3)c3ccc(-c4ncccc4C(F)(F)F)cc3n2)CC1 [Compound 503, 1-[4-(4-Trifluoromethyl-phenylamino)-7-(3-trifluoromethyl-pyridin-2-yl)-quinazolin-2-ylmethyl]-piper idine-4-carboxylic acid ethyl ester] | < 1000 nM |
| OCCN1CCN(Cc2nc(Nc3ccc(C(F)(F)F)cc3)c3ccc(-c4ncccc4C(F)(F)F)cc3n2)CC1 [Compound 504, 2-{4-[4-(4-Trifluoromethyl-phenylamino)-7-(3-trifluoromethyl-pyridin-2-yl)-quinazolin-2-ylmethyl]-piperazin-1-yl}-ethanol] | < 1000 nM |
| CS(=O)(=O)NCc1nc(Nc2ccc(C(F)(F)F)cc2)c2ccc(-c3ncccc3C(F)(F)F)cc2n1 [Compound 506, N-[4-(4-Trifluoromethyl-phenylamino)-7-(3-trifluoromethyl-pyridin-2-yl)-quinazolin-2-ylmethyl]-methanesulfonamide] | < 1000 nM |
| FC(F)(F)c1ccc(Nc2nc(-c3ccncc3)nc3cc(-c4ncccc4C(F)(F)F)ccc23)cc1 [Compound 507, [2-Pyridin-4-yl-7-(3-trifluoromethyl-pyridin-2-yl)-quinazolin-4-yl]-(4-trifluoromethyl-phenyl)-amine] | < 1000 nM |
| FC(F)(F)c1ccc(Nc2nc(-c3cccnc3)nc3cc(-c4ncccc4C(F)(F)F)ccc23)cc1 [Compound 508, [2-Pyridin-3-yl-7-(3-trifluoromethyl-pyridin-2-yl)-quinazolin-4-yl]-(4-trifluoromethyl-phenyl)-amine] | < 1000 nM |
| COc1ccc(-c2nc(Nc3ccc(C(F)(F)F)cc3)c3ccc(-c4ncccc4C(F)(F)F)cc3n2)cn1 [Compound 509, [2-(6-Methoxy-pyridin-3-yl)-7-(3-trifluoromethyl-pyridin-2-yl)-quinazolin-4-yl]-(4-trifluoromethyl-phenyl)-amine] | < 1000 nM |
| FC(F)(F)c1ccc(Nc2nc(C3N=NN=N3)nc3cc(-c4ncccc4C(F)(F)F)ccc23)cc1 [Compound 510, [2-(5H-Tetrazol-5-yl)-7-(3-trifluoromethyl-pyridin-2-yl)-quinazolin-4-yl]-(4-trifluoromethyl-phenyl)-amine] | < 1000 nM |
| CC(C)N1CCN(Cc2nc(Nc3ccc(C(F)(F)F)cc3)c3ccc(-c4ncccc4C(F)(F)F)cc3n2)CC1 [Compound 512, [2-(4-Isopropyl-piperazin-1-ylmethyl)-7-(3-trifluoromethyl-pyridin-2-yl)-quinazolin-4-yl]-(4-trifluoromethyl-phenyl)-amine] | < 1000 nM |
| COCCN1CCN(Cc2nc(Nc3ccc(C(F)(F)F)cc3)c3ccc(-c4ncccc4C(F)(F)F)cc3n2)CC1 [Compound 514, [2-[4-(2-Methoxy-ethyl)-piperazin-1-ylmethyl]-7-(3-trifluoromethyl-pyridin-2-yl)-quinazolin-4-yl]-(4-trifluoromethyl-phenyl)-amine] | < 1000 nM |
| CN(C)CCN1CCN(Cc2nc(Nc3ccc(C(F)(F)F)cc3)c3ccc(-c4ncccc4C(F)(F)F)cc3n2)CC1 [Compound 515, [2-[4-(2-Dimethylamino-ethyl)-piperazin-1-ylmethyl]-7-(3-trifluoromethyl-pyridin-2-yl)-quinazolin-4-yl]-(4-trifluoromethyl-phenyl)-amine] | < 1000 nM |
| FC(F)(F)c1ccc(Nc2nc(CN3CCN(CCN4CCCC4)CC3)nc3cc(-c4ncccc4C(F)(F)F)ccc23)cc1 [Compound 517, [2-[4-(Pyrrolidin-1-yl-ethyl)-piperazin-1-ylmethyl]-7-(3-trifluoromethyl-pyridin-2-yl)-quinazolin-4-yl]-(4-trifluoromethyl-phenyl)-amine] | < 1000 nM |
| FC(F)(F)c1ccc(Nc2nc(CN3CCN(CCN4CCOCC4)CC3)nc3cc(-c4ncccc4C(F)(F)F)ccc23)cc1 [Compound 518, [2-[4-(2-Morpholin-4-yl-ethyl)-piperazin-1-ylmethyl]-7-(3-trifluoromethyl-pyridin-2-yl)-quinazolin-4-yl]-(4-trifluoromethyl-phenyl)-amine] | < 1000 nM |
| CN(C)CCCN1CCN(Cc2nc(Nc3ccc(C(F)(F)F)cc3)c3ccc(-c4ncccc4C(F)(F)F)cc3n2)CC1 [Compound 519, [2-[4-(3-Dimethylamino-propyl)-piperazin-1-ylmethyl]-7-(3-trifluoromethyl-pyridin-2-yl)-quinazolin-4-yl]-(4-trifluoromethyl-phenyl)-amine] | < 1000 nM |
| COCCN(CCOC)Cc1nc(Nc2ccc(C(F)(F)F)cn2)c2ccc(-c3ncccc3C(F)(F)F)cc2n1 [Compound 521, [2-{[Bis-(2-methoxy-ethyl)-aminol]-methyl}-7-(3-trifluoromethyl-pyridin-2-yl)-quinazolin-4-yl]-(5-trifluoromethyl-pyridin-2-yl)-amine] | < 1000 nM |
| CN1CCN(Cc2nc(Nc3ccc(C(F)(F)F)cn3)c3ccc(-c4ncccc4C(F)(F)F)cc3n2)CC1 [Compound 522, [2-(4-Methyl-piperazin-1-ylmethyl)-7-(3-trifluoromethyl-pyridin-2-yl)-quinazolin-4-yl]-(5-trifluoromethyl-pyridin-2-yl)-amine] | < 1000 nM |
| CC(c1ccc(Nc2nc(CN3CCCCC3)nc3cc(-c4ncccc4C(F)(F)F)ccc23)cc1)C(F)(F)F (stereo not drawn) [Compound 523, [2-Piperidin-1-ylmethyl-7-(3-trifluoromethyl-pyridin-2-yl)-quinazolin-4-yI]-[4-(2,2,2-trifluoro-1-methyl-ethyl)-phenyl]-amine] | < 1000 nM |

More lines, now with the values ahead:

| Ki | SMILES |
| --- | --- |
| < 1000 nM | CCOC(=O)C1CCCN(Cc2nc(Nc3ccc(C(F)(F)F)nc3)c3ccc(-c4ncccc4C(F)(F)F)cc3n2)C1 (stereo not drawn) [Compound 488, 1-[7-(3-Trifluoromethyl-pyridin-2-yl)-4-(6-trifluoromethyl-pyridin-3-ylamino)-quinazolin-2-ylmethyl]-piperidine-3-carboxylic acid ethyl ester] |
| < 1000 nM | CC(=O)N1CCN(Cc2nc(Nc3ccc(C(F)(F)F)nc3)c3ccc(-c4ncccc4C(F)(F)F)cc3n2)CC1 [Compound 489, 1 -{4-[7-(3-Trifluoromethyl-pyridin-2-yl)-4-(6-trifluoromethyl-pyridin-3-ylamino)-quinazolin-2-ylmethyl]-piperazin-1-yl}-ethanone] |
| < 1000 nM | OCC1CCCN(Cc2nc(Nc3ccc(C(F)(F)F)nc3)c3ccc(-c4ncccc4C(F)(F)F)cc3n2)C1 (stereo not drawn) [Compound 490, {1-[7-(3-Trifluoromethyl-pyridin-2-yl)-4-(6-trifluoromethyl-pyridin-3-ylamino)-quinazolin-2-ylmethyl]-piperidin-3-yl}-methanol] |
| < 1000 nM | CCOC(=O)C1CCN(Cc2nc(Nc3ccc(C(F)(F)F)nc3)c3ccc(-c4ncccc4C(F)(F)F)cc3n2)CC1 [Compound 491, 1-[7-(3-Trifluoromethyl-pyridin-2-yl)-4-(6-trifluoromethyl-pyridin-3-ylamino)-quinazolin-2-ylmethyl]-piperidine-4-carboxylic acid ethyl ester] |
| < 1000 nM | OCCN1CCN(Cc2nc(Nc3ccc(C(F)(F)F)nc3)c3ccc(-c4ncccc4C(F)(F)F)cc3n2)CC1 [Compound 492, 2-{4-[7-(3-Trifluoromethyl-pyridin-2-yl)-4-(6-trifluoromethyl-pyridin-3-ylamino)-quinazolin-2-ylmethyl]-piperazin-1-yl}-ethanol] |
| < 1000 nM | OCCC1CCN(Cc2nc(Nc3ccc(C(F)(F)F)cc3)c3ccc(-c4ncccc4C(F)(F)F)cc3n2)CC1 [Compound 494, 2-{1-[4-(4-Trifluoromethyl-phenylamino)-7-(3-trifluoromethyl-pyridin-2-yl)-quinazolin-2-ylmethyl]-piperidin-4-yl}-ethanol] |
| < 1000 nM | OCC1CCN(Cc2nc(Nc3ccc(C(F)(F)F)cc3)c3ccc(-c4ncccc4C(F)(F)F)cc3n2)CC1 [Compound 495, {1-[4-(4-Trifluoromethyl-phenylamino)-7-(3-trifluoromethyl-pyridin-2-yl)-quinazolin-2-ylmethyl]-piperidin-4-yl}-methanol] |
| < 1000 nM | OC1CCN(Cc2nc(Nc3ccc(C(F)(F)F)cc3)c3ccc(-c4ncccc4C(F)(F)F)cc3n2)CC1 [Compound 496, 1-[4-(4-Trifluoromethyl-phenylamino)-7-(3-trifluoromethyl-pyridin-2-yl)-quinazolin-2-ylmethyl]-piperidin-4-ol] |
| < 1000 nM | OCC1CCCCN1Cc1nc(Nc2ccc(C(F)(F)F)cc2)c2ccc(-c3ncccc3C(F)(F)F)cc2n1 (stereo not drawn) [Compound 497, {1-[4-(4-Trifluoromethyl-phenylamino)-7-(3-trifluoromethyl-pyridin-2-yl)-quinazolin-2-ylmethyl]piperidin-2-yl}-methanol] |
| < 1000 nM | CC1CCCN(Cc2nc(Nc3ccc(C(F)(F)F)cc3)c3ccc(-c4ncccc4C(F)(F)F)cc3n2)C1 (stereo not drawn) [Compound 498, [2-(3-Methyl-piperidin-1-ylmethyl)-7-(3-yl)-quinazolin-4-yl]-(4-trifluoromethyl-phenyl)-amine] |
